Test results as given in patent US7087768B2, “Fumagillol derivatives and preparing method thereof” (Equispharm Co., Ltd., priority 2001, dated 2006).
Converted amounts (≈) assume the structure as drawn.

Test system: HUVECs (human umbilical vein endothelial cells)
Test: Inhibitory effect of fumagillol derivative on HUVEC cell growth (colorimetry)
Type: cell-based
Settings: Homo sapiens, HUVEC, HUVEC growth, cultured 2–3 days with compound, absorption at 490 nm; read-out: IC50
Experimental: Using the HUVECs (human umbilical vein endothelial), the effect of the fumagillol derivative of the present invention on cell growth was evaluated.
The HUVECs were added to M199 medium supplemented with 20% FBS (fetal bovine serum), 100 U/ml penicillin, 100 μg/ml streptomycin, 1.5 g/L sodium bicarbonate, 0.1 mg/ml endothelial cell growth supplement (Sigma) and 0.1 mg/ml heparin (Sigma), after which the cells were incubated in an incubator at 37° C. under 5% CO2. Cells were subcultured a maximum of 8 times before being discarded.
In order to evaluate inhibitory activity of the fumagillin derivative on growth of HUVECs, the inventive compound was dissolved in DMSO and its concentration was adjusted from 10 mM to 1 mM. Cells were aliquotted to 96 well plates at a density of 2×10^3 cells per well and incubated for about 12–24 hours to be properly attached to the plate. Thereafter, the medium was replaced with new medium. The cells were treated with the compound obtained from each of the above examples at various concentration ranges of from 10 μM to […], and cultured for 2–3 days, followed by removing 100 μl of the medium from each well.
Colorimetry was performed to determine the extent of cell growth. The cells on each plate was added with 20 μl of aqueous one solution and then incubated at 37° C. under 5% CO2 for 2 hours. Using a 96-well plate reader, absorption was measured at 490 nm.
As such, a conventional TNP-470 having angiogenesis inhibitory effect was used as a control.

| Compound | IC50 [ng/mL] |
| --- | --- |
| CO[C@@H]1C(OC(=O)CNC2CC2)CC[C@](O)(CCl)[C@H]1C1(C)OC1CC=C(C)C (stereo in doubt) [Ex. 78, 4-((cyclopropylamino)acetyl)oxy-2-(1,2-epoxy-1,5-dimethyl-4-hexenyl)-3-methoxy-1-chloromethyl-1-cyclohexanol] | 0.014 (≈ 0.0337 nM) |
| CO[C@@H]1C(OC(=O)CNC2CCC2)CC[C@](O)(CCl)[C@H]1C1(C)OC1CC=C(C)C (stereo in doubt) [Ex. 79, 4-((cyclobutylamino)acetyl)oxy-2-(1,2-epoxy-1,5-dimethyl-4-hexenyl)-3-methoxy-1-chloromethyl-1-cyclohexanol] | 0.037 (≈ 0.086 nM) |
| COc1ccc(NCC(=O)O[C@@H]2CC[C@]3(CO3)[C@@H]([C@@]3(C)OC3CC=C(C)C)[C@@H]2OC)cc1 (stereo partly shown) [Ex. 1, 6-O-(4-methoxyaniline)acetyl fumagillol] | 0.0071 (≈ 0.0159 nM) |
| COc1cc(NCC(=O)O[C@@H]2CC[C@]3(CO3)[C@@H]([C@@]3(C)OC3CC=C(C)C)[C@@H]2OC)cc(OC)c1OC (stereo partly shown) [Ex. 2, 6-O-(3,4,5-trimethoxyaniline)acetyl fumagillol] | 0.15 (≈ 0.297 nM) |
| COc1ccc(NCC(=O)O[C@@H]2CC[C@]3(CO3)[C@@H]([C@@]3(C)OC3CC=C(C)C)[C@@H]2OC)c(OC)c1 (stereo partly shown) [Ex. 3, 6-O-(2,4-dimethoxyaniline)acetyl fumagillol] | 0.09 (≈ 0.189 nM) |
| COc1cc(NCC(=O)O[C@@H]2CC[C@]3(CO3)[C@@H]([C@@]3(C)OC3CC=C(C)C)[C@@H]2OC)c([N+](=O)[O-])cc1OC (stereo partly shown) [Ex. 5, 6-O-(3,4-dimethoxy-6-nitroaniline)acetyl fumagillol] | 142 (≈ 273 nM) |
| COc1cc(C#N)c(NCC(=O)O[C@@H]2CC[C@]3(CO3)[C@@H]([C@@]3(C)OC3CC=C(C)C)[C@@H]2OC)cc1OC (stereo partly shown) [Ex. 6, 6-O-(3,4-dimethoxy-6-cyanoaniline)acetyl fumagillol] | 19 (≈ 38 nM) |
| C=CCOc1ccc(NCC(=O)O[C@@H]2CC[C@]3(CO3)[C@@H]([C@@]3(C)OC3CC=C(C)C)[C@@H]2OC)cc1 (stereo partly shown) [Ex. 7, 6-O-(4-allyloxyaniline)acetyl fumagillol] | 21 (≈ 44.5 nM) |
| CO[C@@H]1[C@H](OC(=O)CNc2ccc(OCCOC(C)=O)cc2)CC[C@]2(CO2)[C@H]1[C@@]1(C)OC1CC=C(C)C (stereo partly shown) [Ex. 8, 6-O-(4-(2-acetoxyethoxy)aniline)acetyl fumagillol] | 42 (≈ 81.1 nM) |
| COc1ccc(NCC(=O)O[C@@H]2CC[C@]3(CO3)[C@@H]([C@@]3(C)OC3CC=C(C)C)[C@@H]2OC)cc1C#N (stereo partly shown) [Ex. 9, 6-O-(3-cyano-4-methoxyaniline)acetyl fumagillol] | 0.63 (≈ 1.34 nM) |
| COc1ccc(NCC(=O)O[C@@H]2CC[C@]3(CO3)[C@@H]([C@@]3(C)OC3CC=C(C)C)[C@@H]2OC)cc1CN(C)C (stereo partly shown) [Ex. 10, 6-O-(3-(dimethylaminomethyl)-4-methoxyaniline)acetyl fumagillol] | 0.06 (≈ 0.119 nM) |
| CO[C@@H]1[C@H](OC(=O)CNc2ccc(OCC(C)C)cc2)CC[C@]2(CO2)[C@H]1[C@@]1(C)OC1CC=C(C)C (stereo partly shown) [Ex. 11] | 0.08 (≈ 0.164 nM) |
| COc1ccc(NCC(=O)O[C@@H]2CC[C@]3(CO3)[C@@H]([C@@]3(C)OC3CC=C(C)C)[C@@H]2OC)cc1OC(C)C (stereo partly shown) [Ex. 12, 6-O-(3-isopropoxy-4-methoxyaniline)acetyl fumagillol] | 0.07 (≈ 0.139 nM) |
| COc1c(C(C)C)cc(NCC(=O)O[C@@H]2CC[C@]3(CO3)[C@@H]([C@@]3(C)OC3CC=C(C)C)[C@@H]2OC)cc1C(C)C (stereo partly shown) [Ex. 14, 6-O-(3,5-diisopropyl-4-methoxyaniline)acetyl fumagillol] | 14 (≈ 26.4 nM) |
| COc1c(C)cc(NCC(=O)O[C@@H]2CC[C@]3(CO3)[C@@H]([C@@]3(C)OC3CC=C(C)C)[C@@H]2OC)cc1C (stereo partly shown) [Ex. 15, 6-O-(3,5-dimethyl-4-methoxyaniline)acetyl fumagillol] | 0.06 (≈ 0.127 nM) |
| CCOc1cc(C)c(NCC(=O)O[C@@H]2CC[C@]3(CO3)[C@@H]([C@@]3(C)OC3CC=C(C)C)[C@@H]2OC)cc1C(C)C (stereo partly shown) [Ex. 16, 6-O-(3-isopropyl-4-ethoxy-6-methylaniline)acetyl fumagillol] | 0.17 (≈ 0.33 nM) |
| CCCOc1ccc(NCC(=O)O[C@@H]2CC[C@]3(CO3)[C@@H]([C@@]3(C)OC3CC=C(C)C)[C@@H]2OC)cc1 (stereo partly shown) [Ex. 17, 6-O-(4-propyloxyaniline)acetyl fumagillol] | 0.61 (≈ 1.29 nM) |
| CO[C@@H]1[C@H](OC(=O)CNc2ccc(Cl)cc2)CC[C@]2(CO2)[C@H]1[C@@]1(C)O[C@@H]1CC=C(C)C [Ex. 19, 6-O-(4-chloroaniline)acetyl fumagillol] | 174 (≈ 387 nM) |

| Compound | IC50 [ng/mL] |
| --- | --- |
| CO[C@@H]1[C@H](OC(=O)CNc2ccc(O)cc2)CC[C@]2(CO2)[C@H]1[C@@]1(C)OC1CC=C(C)C (stereo partly shown) [Ex. 21, 6-O-(4-hydroxyaniline)acetyl fumagillol] | 185 (≈ 429 nM) |
| CO[C@@H]1[C@H](OC(=O)CNc2ccc(N)cc2)CC[C@]2(CO2)[C@H]1[C@@]1(C)OC1CC=C(C)C (stereo partly shown) [Ex. 22, 6-O-(4-aminoaniline)acetyl fumagillol] | 179 (≈ 416 nM) |
| CO[C@@H]1[C@H](OC(=O)CNc2ccc3c(c2)OCO3)CC[C@]2(CO2)[C@H]1[C@@]1(C)OC1CC=C(C)C (stereo partly shown) [Ex. 23, 6-O-(3,4-methylenedioxyaniline)acetyl fumagillol] | 0.24 (≈ 0.522 nM) |
| CO[C@@H]1[C@H](OC(=O)CNc2ccc([N+](=O)[O-])cc2)CC[C@]2(CO2)[C@H]1[C@@]1(C)OC1CC=C(C)C (stereo partly shown) [Ex. 24, 6-O-(4-nitroaniline)acetyl fumagillol] | 181 (≈ 393 nM) |
| COc1ccc(NCC(=O)O[C@@H]2CC[C@]3(CO3)[C@@H]([C@@]3(C)OC3CC=C(C)C)[C@@H]2OC)c(OC)c1OC (stereo partly shown) [Ex. 25] | 0.31 (≈ 0.613 nM) |
| COc1cc(NCC(=O)O[C@@H]2CC[C@]3(CO3)[C@@H]([C@@]3(C)OC3CC=C(C)C)[C@@H]2OC)cc(O)c1OC (stereo partly shown) [Ex. 27, 6-O-(3,4-dimethoxy-5-hydroxyaniline)acetyl fumagillol] | 88 (≈ 179 nM) |
| CNCCOc1ccc(NCC(=O)O[C@@H]2CC[C@]3(CO3)[C@@H]([C@@]3(C)OC3CC=C(C)C)[C@@H]2OC)cc1 (stereo partly shown) [Ex. 30, 6-O-(4-ethylaminoethoxyaniline)acetyl fumagillol] | 0.09 (≈ 0.184 nM) |
| CO[C@@H]1[C@H](OC(=O)CNc2ccc(C(F)(F)F)cc2)CC[C@]2(CO2)[C@H]1[C@@]1(C)OC1CC=C(C)C (stereo partly shown) [Ex. 32, 6-O-(4-trifluoromethylaniline)acetyl fumagillol] | 128 (≈ 265 nM) |
| CO[C@@H]1[C@H](OC(=O)CNc2ccc(OC(C)=O)cc2)CC[C@]2(CO2)[C@H]1[C@@]1(C)OC1CC=C(C)C (stereo partly shown) [Ex. 33, 6-O-(4-acetoxyaniline)acetyl fumagillol] | 109 (≈ 230 nM) |
| CO[C@@H]1[C@H](OC(=O)CNc2ccc(C#N)cc2)CC[C@]2(CO2)[C@H]1[C@@]1(C)OC1CC=C(C)C (stereo partly shown) [Ex. 34, 6-O-(4-cyanoaniline)acetyl fumagillol] | 98 (≈ 222 nM) |
| CO[C@@H]1[C@H](OC(=O)CNc2ccc(OCCO)cc2)CC[C@]2(CO2)[C@H]1[C@@]1(C)OC1CC=C(C)C (stereo partly shown) [Ex. 35, 6-O-(4-hydroxyethoxyaniline)acetyl fumagillol] | 116 (≈ 244 nM) |
| COc1ccc(NCC(=O)O[C@@H]2CC[C@]3(CO3)[C@@H]([C@@]3(C)OC3CC=C(C)C)[C@@H]2OC)cn1 (stereo partly shown) [Ex. 36, 6-O-(5-amino-2-methoxypyridine)acetyl fumagillol] | 0.021 (≈ 0.047 nM) |
| COc1ccc(NCC(=O)O[C@@H]2CC[C@]3(CO3)[C@@H]([C@@]3(C)OC3CC=C(C)C)[C@@H]2OC)nn1 (stereo partly shown) [Ex. 38, 6-O-(3-methoxy-6-aminopyridazine)acetyl fumagillol] | 0.019 (≈ 0.0425 nM) |
| CCNCC(=O)O[C@@H]1CC[C@]2(CO2)[C@@H]([C@@]2(C)OC2CC=C(C)C)[C@@H]1OC (stereo partly shown) [Ex. 41, 6-O-(ethylamino)acetyl fumagillol] | 20 (≈ 54.4 nM) |
| CO[C@@H]1[C@H](OC(=O)CNC(C)C)CC[C@]2(CO2)[C@H]1[C@@]1(C)OC1CC=C(C)C (stereo partly shown) [Ex. 42, 6-O-(isopropylamino)acetyl fumagillol] | 12 (≈ 31.5 nM) |
| CCCNCC(=O)O[C@@H]1CC[C@]2(CO2)[C@@H]([C@@]2(C)OC2CC=C(C)C)[C@@H]1OC (stereo partly shown) [Ex. 43, 6-O-(propylamino)acetyl fumagillol] | 2400 (≈ 6290 nM) |
| CCCCNCC(=O)O[C@@H]1CC[C@]2(CO2)[C@@H]([C@@]2(C)OC2CC=C(C)C)[C@@H]1OC (stereo partly shown) [Ex. 44, 6-O-(1-butylamino)acetyl fumagillol] | 3200 (≈ 8090 nM) |

Same assay, conditions: Homo sapiens; HUVEC growth, cultured 2–3 days with compound, absorption at 490 nm; read-out: IC50

| Compound | IC50 [ng/mL] |
| --- | --- |
| COc1ccc(NCC(=O)O[C@@H]2CC[C@]3(CO3)[C@@H]([C@@]3(C)OC3CC=C(C)C)[C@@H]2OC)cc1OC (stereo partly shown) [Ex. 4, 6-O-(3,4-dimethoxyaniline)acetyl fumagillol] | 0.08 (≈ 0.168 nM) |
| CO[C@@H]1[C@H](OC(=O)CNc2ccccc2)CC[C@]2(CO2)[C@H]1[C@@]1(C)OC1CC=C(C)C (stereo partly shown) [Ex. 18, 6-O-(aniline)acetyl fumagillol] | 17 (≈ 40.9 nM) |
| CO[C@@H]1[C@H](OC(=O)CNc2ccc(N(C)C)cc2)CC[C@]2(CO2)[C@H]1[C@@]1(C)OC1CC=C(C)C (stereo partly shown) [Ex. 20, 6-O-(4-dimethylaminoaniline)acetyl fumagillol] | 162 (≈ 353 nM) |
| COc1cnc(NCC(=O)O[C@@H]2CC[C@]3(CO3)[C@@H]([C@@]3(C)OC3CC=C(C)C)[C@@H]2OC)nc1 (stereo partly shown) [Ex. 37, 6-O-(5-methoxypyrimidine-2-amino)acetyl fumagillol] | 0.017 (≈ 0.038 nM) |

Same assay, conditions: relative to TNP-470

| Compound | inhibitory effect on HUVEC, times greater than TNP-470 [times] |
| --- | --- |
| COc1ccc(NCC(=O)O[C@@H]2CC[C@]3(CO3)[C@@H]([C@@]3(C)OC3CC=C(C)C)[C@@H]2OC)cc1 (stereo partly shown) [Ex. 1, 6-O-(4-methoxyaniline)acetyl fumagillol] | 2000 |
